Test results: patent US10111847B2, “Compounds and methods for modulating vascular injury” (The Regents of the University of California, priority 2012, dated 2018)

Assays:
Format in all cases: cell-based, human
ICAM-1 = experiment: TNF-α-stimulated ICAM-1 gene expression in VSMC by qRT-PCR; details: 100 nM; TNF-α 10 ng/ml 18 hours; P<0.01
Protocol: Cells are plated onto 6-well plates at 100% confluency in DMEM plus 10% FBS and allowed to attached overnight. Cells are then made quiescent by placing in serum-free media for 48-72 hours prior to start of experiments. Cells are treated with or without RvD1 or RvD2 at the indicated concentrations for one hour followed by co-incubation with cytokine (TNF-α 10 ng/ml) for up to 18 hours. In a separate set of experiments to examine the role of G-protein receptors, VSMCs are exposed to TNF-α and RvD2 (10 nM) as described above, in the presence or absence of pertussis toxin (PTX 100 ng/ml). Total RNA from rabbit sample or cells is isolated with PureLink RNA Mini kit (Ambion Life Technologies, Carlsbad, Calif.) with RNase-free DNase treatment according to manufacturer's protocol. One microgram of total RNA (from either VSMC or rabbit tissue) is used to generate cDNA using High Capacity cDNA Reverse Transcription Kit (Applied Biosystems, Foster City, Calif.) for subsequent RT-PCR reactions. Sybrgreen Amplified DNA is detected by incorporation SYBR Green (Qiagen, Germantown, Md.). Dissociation curve analyses are performed to confirm the specificity of the SYBR Green signal. Data is normalized to at least two reference genes. […]
FIG. 2: RvD1 and RvD2 reduce pro-inflammatory gene expression in VSMC. […] Expression of the cell adhesion molecules VCAM-1 (A) and ICAM-1 (B) was measured by qRT-PCR. […]

VSMC [1] = experiment: MTT cell viability assay; details: 1-100 nM for 8 hours
Protocol: Cells are plated onto 24-well plates and treated with or without RvD1 or RvD2 (1, 10, and 100 nM) for 8 hours. MTT viability assay is performed per manufacturer's instructions (TOX1 assay, Sigma).
FIG. 8: Cell viability is not affected by RvD1 or RvD2. Cells were treated with or without RvD1 or RvD2 (1, 10, and 100 nM) for 8 hours.

VSMC [2] = experiment: VSMC proliferation assay (Alamar Blue) in 10% serum; details: 100 nM; standard growth medium (10% serum); P<0.01
Description: Primary cultures of human greater saphenous vein smooth muscle cells (hVSMC) are isolated from saphenous vein discarded at the time of bypass operation in an Institutional Review Board-approved protocol as described by Conte et al. “Regulation of vein graft hyperplasia by survivin, an inhibitor of apoptosis protein.” Arterioscler Thromb Vasc Biol. 2005; 25:2081-2087. VSMCs are maintained in Dulbecco's modified Eagle's medium (DMEM Low Glucose) (HyClone Laboratories Inc, Logan, Utah) containing 10% fetal bovine serum (FBS) (Invitrogen Life Technologies, Grand Island, N.Y.) and used between passages 2-5. […]
Cell proliferation assay is performed as described by Conte et al. Arterioscler Thromb Vasc Biol. 2005; 25:2081-2087. […] Fluorescence measurements (excitation 506 nm, emission 590 nm) are made on media aliquots; a standard curve is generated by correlating emission intensity with viable cell counts using Trypan Blue exclusion.
(§1) FIG. 1: RvD1 and RvD2 attenuate cell adhesion, proliferation, and migration responses of human VSMC in-vitro. […] Results are shown as relative percent inhibition, expressed as a percentage of the maximal adhesion for the agonist (n=6, results are mean±SEM, **P<0.01, *P<0.05, unpaired t-test). […] Results are expressed as percentage change in migration from unstimulated control (no PDGF). […]

TNF-α-stimulated VSMC = experiment: Static monocyte (U937) adhesion assay, TNF-α-stimulated VSMC (RvD); details: U937 monocytes; TNF-α 10 ng/ml 4 hours; peak inhibition at 10 nM
Description: Primary cultures of human greater saphenous vein smooth muscle cells (hVSMC) are isolated from saphenous vein discarded at the time of bypass operation in an Institutional Review Board-approved protocol as described by Conte et al. “Regulation of vein graft hyperplasia by survivin, an inhibitor of apoptosis protein.” Arterioscler Thromb Vasc Biol. 2005; 25:2081-2087. VSMCs are maintained in Dulbecco's modified Eagle's medium (DMEM Low Glucose) (HyClone Laboratories Inc, Logan, Utah) containing 10% fetal bovine serum (FBS) (Invitrogen Life Technologies, Grand Island, N.Y.) and used between passages 2-5. Endothelial cells were maintained in Medium 199 supplemented with EBSS (Hyclone Laboratories, Logan, Utah, USA) and Endothelial Cell Growth Supplement. Cells between passages 3-8 were used for the experiments.
RvD. […] Fluorescence measurements (excitation 494 nm, emission 517 nm) of bound monocytes are made with plate reader (Spectra Max M2, Molecular Devices, LLC, Sunnyvale, Calif.).
as §1

Row | Compound | ICAM-1 expression, maximum % reduction (ICAM-1) [%] | loss of cell viability (MTT cytotoxicity assay) (VSMC [1]) | inhibition of VSMC proliferation, maximum effect (VSMC [2]) [%] | maximum % inhibition of monocyte adhesion (TNF-α-stimulated VSMC) [%]
1 | CC/C=C\C[C@H](O)/C=C/C=C\C=C\C=C\[C@@H](O)[C@@H](O)C/C=C\CCC(=O)O [RvD1, Resolvin D1] | 63 | did not display significant loss of cell viability | 59 | 36
2 | CC/C=C\C[C@H](O)[C@H](O)/C=C/C=C/C=C\C=C\[C@@H](O)C/C=C\CCC(=O)O [RvD2, resolvin D2] | 70 | did not display significant loss of cell viability | 63 | 41
